Drawing on ChEMBL document CHEMBL1201862, “PubChem BioAssay data set” (2004), this text covers IC50, EC50 and AC50 for 14 molecules.

Calls of active or inactive are those of the source.

One assay deals with T1, Aminopeptidase N (Plasmodium falciparum FcB1/Columbia, UniProt O96935).
T1 sequence (O96935 whole entry): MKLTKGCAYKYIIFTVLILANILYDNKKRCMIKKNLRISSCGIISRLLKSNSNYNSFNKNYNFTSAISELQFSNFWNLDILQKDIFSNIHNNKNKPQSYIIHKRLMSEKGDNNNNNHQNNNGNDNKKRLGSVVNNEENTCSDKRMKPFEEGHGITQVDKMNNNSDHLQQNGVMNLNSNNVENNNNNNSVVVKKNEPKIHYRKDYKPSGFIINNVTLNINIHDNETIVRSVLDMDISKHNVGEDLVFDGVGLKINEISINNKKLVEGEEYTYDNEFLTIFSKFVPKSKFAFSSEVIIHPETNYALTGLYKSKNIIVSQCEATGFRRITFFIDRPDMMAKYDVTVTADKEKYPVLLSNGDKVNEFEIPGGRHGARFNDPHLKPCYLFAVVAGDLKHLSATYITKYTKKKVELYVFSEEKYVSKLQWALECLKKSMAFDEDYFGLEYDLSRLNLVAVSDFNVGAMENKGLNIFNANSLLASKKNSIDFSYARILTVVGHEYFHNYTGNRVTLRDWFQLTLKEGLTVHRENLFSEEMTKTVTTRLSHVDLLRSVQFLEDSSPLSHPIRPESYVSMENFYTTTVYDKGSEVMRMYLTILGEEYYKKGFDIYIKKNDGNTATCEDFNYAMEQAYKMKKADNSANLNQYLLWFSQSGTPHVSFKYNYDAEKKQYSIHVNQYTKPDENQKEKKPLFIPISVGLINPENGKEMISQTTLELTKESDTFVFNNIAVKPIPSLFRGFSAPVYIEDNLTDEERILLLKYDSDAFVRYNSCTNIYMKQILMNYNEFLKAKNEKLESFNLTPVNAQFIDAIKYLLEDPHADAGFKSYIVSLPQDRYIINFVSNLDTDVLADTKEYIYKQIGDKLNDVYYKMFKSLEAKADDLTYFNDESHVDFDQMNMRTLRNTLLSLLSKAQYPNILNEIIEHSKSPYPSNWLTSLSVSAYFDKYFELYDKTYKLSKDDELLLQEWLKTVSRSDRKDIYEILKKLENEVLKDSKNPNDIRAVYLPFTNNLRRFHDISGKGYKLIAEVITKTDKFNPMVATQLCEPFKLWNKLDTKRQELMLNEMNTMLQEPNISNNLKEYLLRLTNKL
As to the kind of experiment: malaria alanyl aminopeptidase activity blockers – biochemical, fluorogenic H-Leu-NHMec substrate, 1536-well (AID 1445). Details: species or system Plasmodium falciparum 3D7, 3D7.

In assay [1] the target is T2, Zinc finger protein mex-5 (Caenorhabditis elegans, UniProt Q9XUB2).
T2 sequence (Q9XUB2 whole entry): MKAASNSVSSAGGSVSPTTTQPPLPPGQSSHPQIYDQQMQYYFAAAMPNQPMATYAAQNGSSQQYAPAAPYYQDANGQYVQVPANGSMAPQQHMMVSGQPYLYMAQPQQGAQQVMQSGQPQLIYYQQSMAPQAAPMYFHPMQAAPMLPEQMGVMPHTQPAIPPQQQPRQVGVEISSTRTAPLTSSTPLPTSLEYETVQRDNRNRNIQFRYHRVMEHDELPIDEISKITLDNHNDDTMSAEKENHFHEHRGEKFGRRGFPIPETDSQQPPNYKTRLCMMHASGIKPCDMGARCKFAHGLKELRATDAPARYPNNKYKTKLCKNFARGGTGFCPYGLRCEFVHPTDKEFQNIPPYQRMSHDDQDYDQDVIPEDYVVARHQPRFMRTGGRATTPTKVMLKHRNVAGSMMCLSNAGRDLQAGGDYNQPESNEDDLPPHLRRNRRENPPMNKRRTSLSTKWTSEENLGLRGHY
The assay is described as follows: potency of MEX-5 RNA-binding blockers – biochemical, C. elegans, fluorescence polarization, dose response (AID 1960).

The target of assay [2] is T3, RNA-binding protein pos-1 (Caenorhabditis elegans, UniProt G5EF15).
T3 sequence (G5EF15 whole entry): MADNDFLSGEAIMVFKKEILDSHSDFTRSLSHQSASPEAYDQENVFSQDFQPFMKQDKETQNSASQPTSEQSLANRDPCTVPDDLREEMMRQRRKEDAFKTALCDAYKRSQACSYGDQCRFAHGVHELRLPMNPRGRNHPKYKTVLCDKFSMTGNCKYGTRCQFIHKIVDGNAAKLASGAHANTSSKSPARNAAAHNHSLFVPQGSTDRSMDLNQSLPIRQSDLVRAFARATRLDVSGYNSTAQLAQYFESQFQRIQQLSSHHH
As to the kind of experiment: disruptors of C. elegans POS-1 RNA interaction – biochemical, fluorescence polarization, dose response (AID 1964).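 Also: purified POS-1 fused to maltose binding protein made in E. coli; potency of compounds blocking POS-1 binding to fluorescent RNA.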 A general note: In fluorescence polarisation assays a small probe gives low polarisation when free and higher when bound to something large.

In assay [3] the target is T4, High affinity choline transporter 1 (Homo sapiens, UniProt Q9GZV3).
T4 sequence (Q9GZV3 whole entry): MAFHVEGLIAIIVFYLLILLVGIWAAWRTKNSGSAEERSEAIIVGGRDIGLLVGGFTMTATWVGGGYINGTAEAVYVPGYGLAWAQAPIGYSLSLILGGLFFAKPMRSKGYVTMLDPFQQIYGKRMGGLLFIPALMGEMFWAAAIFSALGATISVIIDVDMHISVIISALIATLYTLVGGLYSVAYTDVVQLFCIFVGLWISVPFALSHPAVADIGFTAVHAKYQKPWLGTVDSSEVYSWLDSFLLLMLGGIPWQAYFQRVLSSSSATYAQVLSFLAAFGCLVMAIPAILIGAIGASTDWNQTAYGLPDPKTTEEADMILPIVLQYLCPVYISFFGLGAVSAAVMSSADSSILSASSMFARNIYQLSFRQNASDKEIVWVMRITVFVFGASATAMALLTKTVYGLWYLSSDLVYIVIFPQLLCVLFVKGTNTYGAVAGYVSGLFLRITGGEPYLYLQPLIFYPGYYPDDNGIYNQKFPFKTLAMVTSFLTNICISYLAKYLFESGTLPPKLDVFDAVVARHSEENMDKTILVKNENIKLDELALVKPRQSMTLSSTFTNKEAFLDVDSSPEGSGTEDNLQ
The assay is described as follows: human choline transporter blockers, potency – cell-based, 5-point CRC, membrane potential dye, dose response (AID 504840). The format is functional.

Assay [4] in a line: Trypanosoma cruzi growth suppression in host cells – NIH3T3 host cells, beta-gal luminescence, confirmation (AID 2044).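 Also: intracellular parasites grown in NIH/3T3 mouse fibroblasts as host cells; luminescent beta-galactosidase reporter signal from transgenic T. cruzi replicating inside host cells; inhibitors lower the luminescence signal.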 The format is functional, cell-based.
Assay [5] can be described thus: NIH3T3 cell viability loss – ATP luminescence, mouse fibroblasts, counter-screen, dose response (AID 2010).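 Also: cells exposed to compound for about 90 hours before reading.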 The format is functional, cell-based. On the technique in general: Counterscreens check selectivity or assay interference.
Assay [6] in a line: HEK-293T viability loss after treatment – luminescence, T-cell screen hits, cytotoxicity control for TCR NF-kB inhibitor project, dose response (AID 489026).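 Also: cells exposed to compound about 14 hours before the viability readout.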 The format is functional, cell-based.
Another assay addresses Nonstructural protein 1 (Influenza A virus, UniProt Q194T2). The format is functional, Influenza A virus (A/California/07/2009(H1N1)).
The target in assay [7] is Heat shock protein HSP 90-alpha (Homo sapiens, UniProt P07900). The format is functional, organism-based.
For assay [8], the system named is BJ. The assay is described as follows: cells. The format is functional, cell-based. To be noted: Homo sapiens.
Assay [9] in a line: DRD fibroblast viability loss – cell-based, non-viral oncogenic, luminescence, dose response (AID 1934). The conditions noted are these: Homo sapiens. The format is functional.
Assay [10] relates to BJ. The assay is described as follows: BJ-TERT fibroblast viability loss – cell-based, RAS-independent, luminescence, dose response (AID 1933). The conditions noted are these: Homo sapiens. The format is functional.
The subject of assay [11] is BJ. As to the kind of experiment: BJ-TERT-LT-ST fibroblast viability loss – cell-based, RAS-independent, luminescence, dose response (AID 1935).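 Also: BJ fibroblasts immortalized with TERT plus LT and ST oncogenes.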 The format is functional. To be noted: Homo sapiens.
The next assay relates to INS1. The assay is described as follows: INS-1E survival protection against cytokine death – cell-based, luminescence, retest, dose response (AID 449756).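 Also: cell death triggered by IL-1 beta plus TNF-alpha plus IFN-gamma mixture; protective hits raise ATP signal compared with cytokine alone wells.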 The format is functional. To be noted: Rattus norvegicus.
Assay [12] can be described thus: Luminescence Cell-Based Dose Retest to Confirm Inhibitors of Cancer Stem Cells. [Related pubchem assays (depositor defined):AID2717, AID2721]. The format is functional. The conditions noted are these: Homo sapiens.

Nonstructural protein 1, sequence (Q194T2 whole entry): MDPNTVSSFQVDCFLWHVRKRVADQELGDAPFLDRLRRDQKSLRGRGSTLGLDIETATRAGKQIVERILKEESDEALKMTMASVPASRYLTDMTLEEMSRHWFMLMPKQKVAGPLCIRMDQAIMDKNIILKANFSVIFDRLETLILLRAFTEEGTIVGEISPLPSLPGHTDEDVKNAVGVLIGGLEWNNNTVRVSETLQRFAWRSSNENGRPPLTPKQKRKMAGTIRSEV

Broadly, the IC50 is the concentration at which inhibition is half-maximal. With `CN(C)Cc1c(O)c(Cl)cc2c3c(c(=O)oc12)CCCC3`, the IC50 at Aminopeptidase N is 30.1 µM (active). A word on the EC50: it is the concentration at which the effect is half-maximal. For the molecule `O=C(NCCF)C1Nc2ccc(OC(F)(F)F)cc2C2C=CCC12` (stereo not given), the concentration giving a half-maximal response (EC50) in [1] and in [2] was > 300 µM (not active) in each case. As for `O=C(O)c1cccc(N2C(=O)c3cccc4c(Cl)ccc(c34)C2=O)c1`, the IC50 on Aminopeptidase N was 83.3 µM (active).

Regarding `CCOC(=O)C1=C(COC(=O)c2ccc(OC(C)C)cc2)NC(=O)NC1C` (stereo not given), the IC50 in [3] was 16.6 µM (active). For the molecule `N=c1c(S(=O)(=O)c2ccc(Cl)cc2)cc2c(=O)n3ccccc3nc2n1CCc1ccccc1`, the EC50 in assay [4] was 0.377 µM (active); in assay [5], > 60 µM (not active); in assay [1], 1.39 µM (active); in assay [2], > 300 µM (inconclusive). With `O=C(Sc1cccc2cccnc12)c1ccc(F)cc1`, in assay [6], the IC50 was > 80 µM (inactive).

Take `Cc1cc([N+](=O)[O-])c(NC2CCCCC2)c([N+](=O)[O-])c1`: the IC50 at Nonstructural protein 1 is 41.5 µM (active).

In the case of `Oc1ccc(C=NNC(=S)Nc2ccc(F)cc2)c(O)c1`, the IC50 at Nonstructural protein 1 was 14.6 µM (active). Broadly, the AC50 is the concentration at which the activity in the assay is half-maximal. `O=C1C=CC(=O)N1c1ccc2c(c1)Cc1cc(F)ccc1-2`: in [7], the AC50 was < 0.195 µM (active). In the case of `N#Cc1cc2c(nc1SCc1ccccc1)CCCC2=O`, the IC50 on Aminopeptidase N is 86.4 µM (active). Take `CC(C)(C)c1nnc(N/N=C/c2ccccc2O)n(N)c1=O`: the IC50 was > 80 µM (inactive) in assay [6] and 5.93 µM (active) on Nonstructural protein 1. In addition, the EC50 in the assay on BJ [8] was 8.53 µM (inconclusive); in assay [9], 2.47 µM (active); in the assay with BJ [10], 1.86 µM (active); with BJ [11], 15.1 µM (active). In the case of `C=CCN1C(=O)/C(=N\Nc2c(C)n(C)n(-c3ccccc3)c2=O)C(=O)NC1=S`, the IC50 on Nonstructural protein 1 was 2.29 µM (active). The same measure, in the same setting: the value for `Cc1cc(C)n(CC(=O)N/N=C/c2cc([N+](=O)[O-])ccc2O)n1` was 10.8 µM (active). Turning to `CCCOc1ccc(/C=N/Nc2cc(N3CCOCC3)ncn2)c(O)c1`, in assay [6], the IC50 is > 80 µM (inactive). Also, the AC50 in the assay on INS1 was 2.27 µM (active); in [12], 2.87 µM (active).
